The text below walks through data of ChEMBL document CHEMBL1149654, “Caprolactams as potent CGRP receptor antagonists for the treatment of migraine” (Bioorg Med Chem Lett, 2007).

Series [1] concerns the target T1, Calcitonin-gene-related peptide receptor, CALCRL/RAMP1 (Homo sapiens, UniProt O60894+Q16602). Put plainly: Antagonist activity at human CGRP receptor in E10 cells assessed as inhibition of cAMP production. The series is classed as functional, cell-based.
Series [2] addresses T1, Calcitonin-gene-related peptide receptor, CALCRL/RAMP1. Put plainly: Displacement of [125I]CGRP from human CL receptor in RAMP1 membranes. The series is classed as cell membranes.
Series [3] has the same target. Put plainly: Displacement of [125I]CGRP from human CL receptor in RAMP1 membranes at 100 uM. The format is cell membranes. On the technique in general: Loss of bound radioactivity is the signal in a displacement assay; it reports binding, not function.
Series [4] can be described thus: Clearance in rat at 10 mg/kg, po. The series is classed as ADME, organism-based. More on the design: dose 10 mg/kg, route oral. The conditions noted are these: in vivo.
Series [5] is described as follows: Bioavailability in rat at 10 mg/kg, po. As to conditions: in vivo. The series is classed as ADME, organism-based.

pIC50, pKi: −log10 of the molar value.

T1 sequence (O60894 whole entry): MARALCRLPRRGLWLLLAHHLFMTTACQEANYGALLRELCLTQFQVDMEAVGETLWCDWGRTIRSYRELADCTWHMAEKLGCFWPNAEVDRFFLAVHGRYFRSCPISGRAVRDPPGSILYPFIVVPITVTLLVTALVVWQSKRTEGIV
T1 sequence (Q16602 whole entry): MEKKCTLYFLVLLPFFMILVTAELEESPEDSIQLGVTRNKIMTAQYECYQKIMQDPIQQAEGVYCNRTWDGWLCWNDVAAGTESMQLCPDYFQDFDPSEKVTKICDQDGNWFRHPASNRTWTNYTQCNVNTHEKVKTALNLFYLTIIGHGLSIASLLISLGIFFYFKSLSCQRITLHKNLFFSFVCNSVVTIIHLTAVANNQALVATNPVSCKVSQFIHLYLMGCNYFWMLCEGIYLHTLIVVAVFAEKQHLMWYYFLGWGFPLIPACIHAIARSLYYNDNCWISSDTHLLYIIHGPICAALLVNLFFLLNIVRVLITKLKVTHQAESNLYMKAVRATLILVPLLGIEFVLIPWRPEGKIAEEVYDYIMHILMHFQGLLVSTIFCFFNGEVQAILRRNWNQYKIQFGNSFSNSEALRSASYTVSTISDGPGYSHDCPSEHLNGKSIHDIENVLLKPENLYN

On to `CC(C)(C)OC(=O)CN1C(=O)C(NC(=O)N2CCC(N3Cc4ccccc4NC3=O)CC2)CCCC1c1ccccc1` (racemic; 13), for which, in series [1], the pIC50 (commonly −log10 of the IC50, conventionally taken in molar units) is 5.67. In addition, the pKi – broadly, −log10 of the Ki, conventionally taken in molar units – in series [2] was 5.70.
Regarding `CC(C)(C)OC(=O)CN1C(=O)C(NC(=O)N2CCC(N3Cc4ccccc4NC3=O)CC2)CCCC1c1ccccc1` (racemic; 12), the pKi in series [2] is 4.77.
On to `O=C(N[C@@H]1CCN(Cc2ccccc2)C1=O)N1CCC(N2Cc3ccccc3NC2=O)CC1`, for which the Activity in series [3] was 63%.
For `O=C(N[C@@H]1CC[C@@H](c2ccccc2)CN(CC2CC2)C1=O)N1CCC(N2CCc3ccccc3NC2=O)CC1`, the pIC50 in series [1] is 7.49. The negative-log Ki (pKi) in series [2] was 7.54.
The matching figures for `O=C(N[C@@H]1CC[C@@H](c2ccccc2)CN(CC2CC2)C1=O)N1CCC(n2nc(-c3ccccc3)[nH]c2=O)CC1`: 7.35 and 7.54.
Take `O=C(NC1CC(c2ccccc2)CCN(CC2CC2)C1=O)N1CCC(n2cc(-c3ccccc3)[nH]c2=O)CC1` (racemic; 30): in series [1], the negative-log IC50 (pIC50) was 6.85. Further, in series [2], the negative-log Ki (pKi) is 7.77.
With `O=C(N[C@@H]1CCCN(Cc2ccccc2)C1=O)N1CCC(N2Cc3ccccc3NC2=O)CC1`, the Activity in series [3] is 46%.
Take `O=C(N[C@@H]1CCC[C@H](c2ccccc2)N(CC2CC2)C1=O)N1CCC(N2Cc3ccccc3NC2=O)CC1`: in series [1], the pIC50 was 6.39. Also, the pKi in series [2] was 6.16.
As to `CC(C)(C)OC(=O)CN1C(=O)[C@H](NC(=O)N2CCC(N3Cc4ccccc4NC3=O)CC2)CCC[C@@H]1c1ccccc1`, in series [2], the pKi was 6.03.
In the case of `O=C(NC1CCC(c2ccccc2)CN(CC2CC2)C1=O)N1CCC(N2Cc3ccccc3NC2=O)CC1` (racemic; 18), the pIC50 in series [1] is 7.27. In addition, the pKi in series [2] was 7.51.
On to `O=C(NC1CC(c2ccccc2)CCN(CC2CC2)C1=O)N1CCC(n2nc(-c3ccccc3)[nH]c2=O)CC1` (racemic; 28), for which the pIC50 in series [1] is 6.31. Besides, the pKi in series [2] was 6.58.
`O=C(N[C@@H]1CC[C@@H](c2ccccc2)CN(CC2CC2)C1=O)N1CCC(N2Cc3ccccc3NC2=O)CC1`: the negative-log IC50 (pIC50) in series [1] was 7.44. In series [2], the pKi is 7.60.
Take `O=C(N[C@H]1CCCCN(Cc2ccccc2)C1=O)N1CCC(N2Cc3ccccc3NC2=O)CC1`: the pKi in series [2] was 4.95.
As for `O=C(NC1CC(c2ccccc2)CCN(CC2CC2)C1=O)N1CCC(n2cc(-c3ccccc3)[nH]c2=O)CC1` (racemic; 29), in series [1], the pIC50 is 6.88. For the same molecule, the negative-log Ki (pKi) in series [2] is 7.46.
The matching figures for `O=C(N[C@@H]1CCCCN(CC2CC2)C1=O)N1CCC(N2Cc3ccccc3NC2=O)CC1`: 5.62 and 5.11.
Turning to `CC(C)N1C(=O)[C@H](NC(=O)N2CCC(N3Cc4ccccc4NC3=O)CC2)N=C(c2ccccc2)c2ccccc21`, the pIC50 in series [1] was 7.19. Besides, in series [2], the negative logarithm of the Ki (pKi) was 7.26.
Turning to `O=C(N[C@@H]1CCCCN(Cc2ccccc2)C1=O)N1CCC(N2Cc3ccccc3NC2=O)CC1`, the negative logarithm of the Ki (pKi) in series [2] was 5.74.
On to `CC(C)(C)OC(=O)CN1C(=O)[C@@H](NC(=O)N2CCC(N3Cc4ccccc4NC3=O)CC2)CCC[C@H]1c1ccccc1`, for which the pIC50 in series [1] was 6.33. In series [2], the pKi was under 5.00.
In the case of `O=C(NC1CCC(c2ccccc2)CN(CC2CC2)C1=O)N1CCC(N2Cc3ccccc3NC2=O)CC1` (racemic; 17), the pIC50 in series [1] was 6.11. Also, in series [2], the pKi is 6.16.
The matching figures for `CC(C)N1C(=O)C(NC(=O)N2CCC(N3Cc4ccccc4NC3=O)CC2)CCc2ccccc21` (configuration not stated): 5.51 and 5.43.
The matching figures for `O=C(N[C@H]1CC[C@H](c2ccccc2)CN(CC2CC2)C1=O)N1CCC(N2Cc3ccccc3NC2=O)CC1`: 5.18 and 5.23.
In the case of `O=C(NC1CC(c2ccccc2)CCN(CC2CC2)C1=O)N1CCC(n2nc(-c3ccccc3)[nH]c2=O)CC1` (racemic; 27), in series [1], the pIC50 was 5.42. In addition, the pKi in series [2] is 6.26.
With `O=C(N[C@@H]1CC[C@@H](c2ccccc2)CN(CC2CC2)C1=O)N1CCC(n2cc(-c3ccccc3)[nH]c2=O)CC1`, in series [1], the pIC50 was 8.40. In addition, the CL/F (usually clearance divided by bioavailability, as obtained after extravascular dosing) in series [4] turned out to be 2.16 L/h/kg. Moreover, the bioavailability (usually dose-corrected exposure relative to a reference, in per cent) in series [5] is 27%. For the same molecule, the negative logarithm of the Ki (pKi) in series [2] is 8.70.
